Here are results for eleven molecules from patent US20250049891A1, “NOVEL PEPTIDE DERIVATIVE DERIVED FROM ADIPONECTIN AND USE THEREOF” (SEOUL NATIONAL UNIVERSITY HOSPITAL, priority 2021, published 2025).

The subject of series [1] is AMPK phosphorylation. The experiment in a line: AMPK phosphorylation activity in mouse adipocytes (Western blot). Format: cell-based. As to conditions: 3T3-L1, 10 μM, 24 hours; APN5 = 1.0. As for the experimental part: There were confirmed effects of the peptide derivatives of the present disclosure on the expression and receptor activity of adiponectin in mouse adipocytes as a main adiponectin production site. A mouse adipocyte cell line 3T3-L1 was treated with each of the peptide derivatives of the present disclosure at a concentration of 10 μM and cultured for 24 hours, and then cells were obtained. Thereafter, the proteins were extracted and the effect on AMPK phosphorylation, which was responsible for the main downstream signaling of adiponectin, was confirmed by Western blot.
On the technique in general: Immunoblotting shows a protein as a band on a membrane.

Series [2] in a line: physchem. To be noted: pH 7.4, aqueous buffer, kinetic from dmso stock.
Method: A PRISMA HT solution was diluted in distilled water at a ratio of 1:40, and then used as a test buffer by adjusting the pH to 7.4.
10 mL of the prepared test material was diluted in 190 μL of isopropyl alcohol and prepared. In addition, 75 mL of the test solution and 70 mL of isopropyl alcohol were mixed to be used as a blank sample, and 5 mL of the test material diluted in isopropyl alcohol was added to the blank sample. After the diluted sample was mixed, the absorbance was measured and used as an initial test value. […] Thereafter, the precipitate was removed from the sample using a filter plate, 74 mL of the filtered sample was added with 75 mL of isopropyl alcohol, and then the absorbance was measured and used as the sample value.
The solubility value of the test material was analyzed using a msol Explore (Solubility explorer program) after measuring the absorbance of each sample through a microplate reader. The average and standard deviation of the experimental values (n=3) repeated three times were calculated using the Excel program.
A short description of series [3]: Metabolic stability test, rat liver microsomes. Format: in vitro ADME. As to conditions: pH 7.4, rat liver microsomes 0.5 mg/ml, NADPH, 37° C., 30 m.
Method: (§2) Three types of liver microsomes (Human, Rat, Mouse, 0.5 mg/ml), a 0.1 M phosphate buffer solution (pH 7.4), and the peptide derivative of the present disclosure were added at a concentration of 1 μM and pre-cultured at 37° C. for 5 minutes, and then added with an NADPH Regeneration system solution and cultured at 37° C. for 30 minutes. Thereafter, to terminate the reaction, the mixture was added with an acetonitrile solution containing an internal standard material (chlorpropamide), centrifuged for 5 minutes (14,000 rpm, 4° C.), and then the supernatant was injected into the LC-MS/MS system to analyze a substrate drug, and thus metabolic stability was evaluated.
(§3) The amount of substrate remaining through the reaction was analyzed by LC-MS/MS using Agilent 1290 infinity series pump system (Agilent, USA) and Triple Quad 5500 LC-MS/MS system (Applied Biosystems, USA). The HPLC column was used with a Kinetex C18 column (2.1×100 mm, 1.7 μm particle size; Phenomenex, USA), and the mobile phase was distilled water (A) containing 0.1% formic acid and acetonitrile (B) containing 0.1% formic acid. TurboSpray Ionization was used as an ion source for MS/MS, and a triple quadruple type was used as a mass spectrometer. The produced metabolites were quantified using a multiple reaction monitoring (MRM) quantitative mode, and data analysis was performed using Analyst software (version 1.6.1).
Series [4] in a line: Metabolic stability test, mouse liver microsomes. To be noted: pH 7.4, mouse liver microsomes 0.5 mg/ml, NADPH, 37° C., 30 m. Format: in vitro ADME. Background: Microsomes from liver hold many membrane-bound enzymes, among them those of drug oxidation.
Method: as §2, §3
Series [5] deals with T1, CYP1A2 (Homo sapiens, UniProt P05177).
T1 sequence (P05177 1-516): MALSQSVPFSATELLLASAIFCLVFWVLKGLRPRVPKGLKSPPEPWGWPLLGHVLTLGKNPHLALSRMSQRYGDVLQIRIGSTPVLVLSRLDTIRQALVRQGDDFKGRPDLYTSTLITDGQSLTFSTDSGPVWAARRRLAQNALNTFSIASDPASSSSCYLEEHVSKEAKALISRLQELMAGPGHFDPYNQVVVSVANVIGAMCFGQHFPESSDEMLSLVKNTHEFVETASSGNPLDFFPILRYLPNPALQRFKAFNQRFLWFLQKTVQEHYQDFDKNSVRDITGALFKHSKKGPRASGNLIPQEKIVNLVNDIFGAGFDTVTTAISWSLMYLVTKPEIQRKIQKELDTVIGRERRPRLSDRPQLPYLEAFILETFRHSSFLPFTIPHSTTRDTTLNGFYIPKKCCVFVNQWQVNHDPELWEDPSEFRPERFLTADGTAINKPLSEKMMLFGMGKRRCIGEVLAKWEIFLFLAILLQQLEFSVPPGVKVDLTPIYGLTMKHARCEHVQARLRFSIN
To be noted: microsomes, 10 µM. The procedure:
(§1) Metabolites of each CYP isoenzyme indicator drug produced through the reaction were analyzed by LC-MS/MS using the Shimadzu Nexera XR system and TSQ vantage (Thermo).

For series [6], the target named is CYP2C19 (Homo sapiens, UniProt P33261). As to conditions: microsomes, 10 µM. The procedure:
as §1

Series [7] deals with CYP2C9 (Homo sapiens, UniProt P11712). To be noted: microsomes, 10 µM. The procedure:
as §1

For series [8], the target named is CYP2D6 (Homo sapiens, UniProt P10635). As to conditions: microsomes, 10 µM. As for the experimental part: as §1
CYP2D6, sequence (P10635 whole entry): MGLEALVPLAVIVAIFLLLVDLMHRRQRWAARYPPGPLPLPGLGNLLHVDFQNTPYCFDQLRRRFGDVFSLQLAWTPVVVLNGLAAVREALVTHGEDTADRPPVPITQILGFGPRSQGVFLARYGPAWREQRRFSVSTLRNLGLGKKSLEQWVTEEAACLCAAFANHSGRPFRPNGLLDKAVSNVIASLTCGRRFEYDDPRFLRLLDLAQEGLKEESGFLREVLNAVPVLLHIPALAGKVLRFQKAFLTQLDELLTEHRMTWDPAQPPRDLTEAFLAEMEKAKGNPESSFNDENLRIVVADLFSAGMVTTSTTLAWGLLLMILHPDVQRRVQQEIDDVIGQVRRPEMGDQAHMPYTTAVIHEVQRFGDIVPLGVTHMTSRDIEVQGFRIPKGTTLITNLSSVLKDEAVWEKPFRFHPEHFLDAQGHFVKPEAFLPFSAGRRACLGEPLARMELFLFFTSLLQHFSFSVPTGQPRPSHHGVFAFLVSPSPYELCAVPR
Series [9] has as its target CYP3A4 (Homo sapiens, UniProt P08684). To be noted: microsomes, 10 µM. The procedure: as §1
Series [10] in a line: in vitro. As to conditions: human, plasma.
Method: (§4) The peptide derivative of the present disclosure was added at a concentration of 1 μM to two types of plasma (human, rat), placed in each tube, and then cultured at 37° C. for time of 0, 30, 60, 120, and 240 minutes. The tube containing plasma was taken out every time, added with an acetonitrile solution containing an internal standard material (chlorpropamide), vortexed for 5 minutes, and centrifuged for 5 minutes (14,000 rpm, 4° C.). Thereafter, the plasma stability of the peptide derivative was evaluated by injecting the supernatant into an LC-MS/MS system and analyzing the drug at each time period. At this time, Procaine and Enalapril were used as reference materials for accuracy during a general plasma stability test.
(§5) After the reaction, the amount of drug remaining in each tube was analyzed by LC-MS/MS using Shimadzu Nexera XR system and TSQ vantage (Thermo). The HPLC column was used with a Luna C18 column (2.0×50 mm, 3 μm particle size; Phenomenex, US), and the mobile phase was distilled water (A) containing 0.1% formic acid and acetonitrile (B) containing 0.1% formic acid. Data analysis was performed using Xcalibur (version 1.6.1). In the result analysis, the plasma stability of each peptide derivative was expressed as % remaining for each time period for the sample without culture.
Series [11] in a line: in vitro. To be noted: rat, plasma.
Method: as §4, §5
Series [12] in a line: in vitro. To be noted: human, microsomes, pH 7.4.
Method: as §2
The HPLC column was used with a Kinetex C18 column (2.1×100 mm, 1.7 μm particle size; Phenomenex, USA), and the mobile phase was distilled water (A) containing 0.1% formic acid and acetonitrile (B) containing 0.1% formic acid. TurboSpray Ionization was used as an ion source for MS/MS, and a triple quadruple type was used as a mass spectrometer. The produced metabolites were quantified using a multiple reaction monitoring (MRM) quantitative mode, and data analysis was performed using Analyst software (version 1.6.1).
Series [13] can be described thus: Plasma stability test, rat plasma. To be noted: rat plasma, 1 μM, 37° C.
Method: as §4, §5
Series [14] can be described thus: Plasma stability test, human plasma. To be noted: human plasma, 37° C.
Method: as §4, §5

In brackets after ≈: the same amount, converted by molar mass. Numbered stars: 1 amine (or outer) side, 2 acyl side, 3 side chain; on linkers, the order of the positions; unused ones are H or OH. Bridge positions count the residues as written; N and C are the ends. Square brackets hold non-standard residues; d marks the D form. Peptide text beside a SMILES is read from it. ξ: configuration not given here. ξhAlg = O=C(C(CCC=[*:3])N[*:1])[*:2]; AllylGly = C=CC[CH](N)C(=O)O

By solubility is commonly meant how much of the substance goes into solution per volume. Read a high solubility as a readily soluble substance. As usually defined, the amount remaining is the share of the starting amount still present when the sample was taken. As a reminder, the solubility (kinetic) is solubility judged after dilution from a stock solution rather than from solid.

CYP2C9, sequence (P11712 whole entry): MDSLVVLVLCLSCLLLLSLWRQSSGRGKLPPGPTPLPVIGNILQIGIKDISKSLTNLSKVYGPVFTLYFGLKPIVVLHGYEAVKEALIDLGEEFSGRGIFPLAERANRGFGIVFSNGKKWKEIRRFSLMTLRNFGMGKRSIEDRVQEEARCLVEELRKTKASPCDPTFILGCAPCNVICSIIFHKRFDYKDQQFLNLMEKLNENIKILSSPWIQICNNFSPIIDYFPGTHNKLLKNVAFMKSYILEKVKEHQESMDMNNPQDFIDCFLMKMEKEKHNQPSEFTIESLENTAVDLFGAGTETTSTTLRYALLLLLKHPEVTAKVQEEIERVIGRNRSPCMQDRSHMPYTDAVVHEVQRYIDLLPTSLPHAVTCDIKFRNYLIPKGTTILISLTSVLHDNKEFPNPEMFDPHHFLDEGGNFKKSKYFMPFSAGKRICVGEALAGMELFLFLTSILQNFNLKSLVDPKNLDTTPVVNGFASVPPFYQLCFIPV
CYP2C19, sequence (P33261 whole entry): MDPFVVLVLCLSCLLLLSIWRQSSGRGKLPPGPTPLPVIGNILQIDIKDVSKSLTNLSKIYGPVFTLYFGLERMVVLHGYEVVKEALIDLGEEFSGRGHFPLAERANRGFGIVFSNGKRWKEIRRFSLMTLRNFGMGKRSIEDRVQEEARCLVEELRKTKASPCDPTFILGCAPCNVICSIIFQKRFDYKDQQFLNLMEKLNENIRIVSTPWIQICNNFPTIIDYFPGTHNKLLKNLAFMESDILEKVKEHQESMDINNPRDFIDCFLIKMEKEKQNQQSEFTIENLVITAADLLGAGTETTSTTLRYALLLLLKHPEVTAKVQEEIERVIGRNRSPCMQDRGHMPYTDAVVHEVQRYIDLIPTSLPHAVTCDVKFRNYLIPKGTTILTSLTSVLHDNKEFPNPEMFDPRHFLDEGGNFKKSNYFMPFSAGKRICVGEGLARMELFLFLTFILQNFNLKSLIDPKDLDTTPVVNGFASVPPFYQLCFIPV
CYP3A4, sequence (P08684 whole entry): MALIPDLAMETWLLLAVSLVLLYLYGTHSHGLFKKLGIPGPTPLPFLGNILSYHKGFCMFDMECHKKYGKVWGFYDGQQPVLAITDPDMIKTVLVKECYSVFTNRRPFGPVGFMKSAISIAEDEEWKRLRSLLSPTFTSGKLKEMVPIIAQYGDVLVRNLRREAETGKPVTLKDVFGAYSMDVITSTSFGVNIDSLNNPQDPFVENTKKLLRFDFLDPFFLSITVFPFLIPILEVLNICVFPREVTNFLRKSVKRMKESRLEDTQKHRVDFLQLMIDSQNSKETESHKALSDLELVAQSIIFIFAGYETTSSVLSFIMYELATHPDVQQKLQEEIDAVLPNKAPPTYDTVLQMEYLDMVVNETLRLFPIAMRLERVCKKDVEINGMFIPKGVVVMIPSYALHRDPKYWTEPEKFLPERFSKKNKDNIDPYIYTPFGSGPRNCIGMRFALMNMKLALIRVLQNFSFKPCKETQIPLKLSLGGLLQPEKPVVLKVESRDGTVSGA

Consider `NCC(=O)NC(CC(N)=O)C(=O)NC(Cc1ccc(O)cc1)C(=O)NC(Cc1ccc(O)cc1)C(=O)NC(Cc1ccccc1)C(=O)O` (stereo not drawn) [DS-9, NH2-GNYYF-OH] (H-GNYYF-OH; configuration not given here), for which the “AMPK phosphorylation activity (fold change)” value in series [1] came out at 1.6 fold change.
Take `NC(CC(=O)O)C(=O)NC(Cc1ccc(O)cc1)C(=O)NC(Cc1ccc(O)cc1)C(=O)NC(Cc1ccccc1)C(=O)O` (stereo not drawn) [DS-27, NH2-DYYF-OH] (H-DYYF-OH; configuration not given here): the “AMPK phosphorylation activity (fold change)” value in [1] was determined as 1.3 fold change. Moreover, in series [2], the solubility at 24 h amounted to 300 µg/mL (≈ 495 µM).
For `NC(=O)C(Cc1ccccc1)NC(=O)C(Cc1ccc(O)cc1)NC(=O)C(Cc1ccc(O)cc1)NC(=O)C(N)CC(=O)O` (stereo not drawn) [DS-29, NH2-DYYF-NH2] (H-DYYF-NH2; configuration not given here) the same measures were 1.2 fold change and 300 µg/mL (≈ 495 µM).
Regarding `NCCCCC(NC(=O)C(Cc1ccc(O)cc1)NC(=O)C(Cc1ccc(O)cc1)NC(=O)C(CC(=O)O)NC(=O)CN)C(N)=O` (stereo not drawn) [DS-35, NH2-GDYYK-NH2] (H-GDYYK-NH2; configuration not given here), the share remaining at 0.5 h, 1 μM in [3] is 95.8%; in series [4] it was 99.2%; in [10] it was 2.9%; in [11], 99.4%; in series [12] it was above 100%. Also, the “CYP inhibition (% of control activity) CYP1A2” value in [5] is 77.7 % of control activity. The “CYP inhibition (% of control activity) CYP2C19” value in [6] was 4.1 % of control activity. For the same molecule, the “CYP inhibition (% of control activity) CYP2C9” value in series [7] is listed as 93.6 % of control activity. Moreover, the “CYP inhibition (% of control activity) CYP2D6” value in series [8] was 97.4 % of control activity. For the same molecule, in [9], the “CYP inhibition (% of control activity) CYP3A4” value is recorded as >100 % of control activity. Moreover, the share remaining at 2 h, 1 μM is below 1% in series [10] and 89.4% in series [11].
As for `CC(C)CC(NC(=O)CN)C(=O)N(C)C(Cc1ccc(O)cc1)C(=O)NC(Cc1ccc(O)cc1)C(=O)NC(Cc1ccccc1)C(N)=O` (stereo not drawn) [DS-56, NH2-GLY(N-Me)YF-NH2], the share remaining at 0.5 h, 1 μM in series [3] turned out to be 41.1%; in [4], 10.6%; in [10] it was 2.8%; in series [11], 70.9%; in [12] it was 53.9%. Besides, the “CYP inhibition (% of control activity) CYP1A2” value in [5] was 80.5 % of control activity. The “CYP inhibition (% of control activity) CYP2C19” value in series [6] was 73.5 % of control activity. Further, in series [7], the “CYP inhibition (% of control activity) CYP2C9” value is given as 100.0 % of control activity. For the same molecule, the “CYP inhibition (% of control activity) CYP2D6” value in series [8] is recorded as 91.6 % of control activity. Besides, in series [9], the “CYP inhibition (% of control activity) CYP3A4” value is 9.2 % of control activity. For the same molecule, the fraction remaining at 2 h, 1 μM in series [10] is below 1%; in [11], 29.4%.
As for `CC(C)CC1NC(=O)C(N)CC/C=C\CC(C(N)=O)NC(=O)C(Cc2ccc(O)cc2)NC(=O)C(Cc2ccc(O)cc2)NC1=O` (stereo not drawn) [DS-73] (H-[ξhAlg]LYY[AllylGly]-NH2; staple (Z) 1-5; configuration not given here), the share remaining at 0.5 h, 1 μM in series [3] was 65.7%; in series [4] it was 78%; in [10], 94.7%; in series [11] it was above 100%; in [12] it was 71.6%. Also, the “CYP inhibition (% of control activity) CYP1A2” value in series [5] is 82.7 % of control activity. In addition, the “CYP inhibition (% of control activity) CYP2C19” value in [6] is 85.1 % of control activity. The “CYP inhibition (% of control activity) CYP2C9” value in [7] was 96.5 % of control activity. In addition, the “CYP inhibition (% of control activity) CYP2D6” value in [8] is on record as 85.9 % of control activity. The “CYP inhibition (% of control activity) CYP3A4” value in [9] is 80.5 % of control activity. This molecule came in with a solubility at 24 h in series [2] of 315 µg/mL (≈ 495 µM). Further, the amount remaining at 2 h, 1 μM in [10] was 75.2%; in series [11] it was 89.3%.
For `CCOC(=O)[C@H](CCc1ccccc1)N[C@@H](C)C(=O)N1CCC[C@H]1C(=O)O` [Enalapril], in series [13], the “Plasma stability (% remaining) Rat, 30 m” value is 27.9 % remaining and the “Plasma stability (% remaining) Rat, 120 m” value was below 1 % remaining. For the same molecule, the “Plasma stability (% remaining) Human, 30 m” value in [14] (1 μM, 30 m) is on record as above 100 % remaining. In addition, the “Plasma stability (% remaining) Human, 120 m” value in [14] (1 μM, 120 m) is on record as 197.4 % remaining.
For the molecule `CC(=O)N1CCN(c2ccc(OCC3COC(Cn4ccnc4)(c4ccc(Cl)cc4Cl)O3)cc2)CC1` (stereo not drawn) [Ketoconazole, reference compound], the “CYP inhibition (% of control activity) CYP1A2” value in series [5] is reported as 97.2 % of control activity. Moreover, the “CYP inhibition (% of control activity) CYP2C19” value in [6] is >100 % of control activity. Also, the “CYP inhibition (% of control activity) CYP2C9” value in [7] is on record as >100 % of control activity.
Turning to `CCN(CC)CCOC(=O)c1ccc(N)cc1` [Procaine], in series [13], the “Plasma stability (% remaining) Rat, 30 m” value is 90.3 % remaining and the “Plasma stability (% remaining) Rat, 120 m” value was found to be 57.4 % remaining. Besides, in series [14] (cell marked (5 min)), the “Plasma stability (% remaining) Human, 30 m column, marked (5 min)” value is given as 2.8 % remaining and the “Plasma stability (% remaining) Human, 120 m column, marked (5 min)” value is below 1 % remaining.
In the case of Ac-GDYYF-NH2 [DS-8, AcNH-GDYYF-NH2], the fraction remaining at 0.5 h, 1 μM in series [3] is 78.2%; in [4], 83.6%; in series [10], 39.8%; in [11] it was above 100%; in [12], 93.9%. Also, the “CYP inhibition (% of control activity) CYP1A2” value in [5] was 95.1 % of control activity. Also, the “CYP inhibition (% of control activity) CYP2C19” value in series [6] is 100 % of control activity. Moreover, the “CYP inhibition (% of control activity) CYP2C9” value in [7] was >100 % of control activity. In [8], the “CYP inhibition (% of control activity) CYP2D6” value is on record as >100 % of control activity. In series [9], the “CYP inhibition (% of control activity) CYP3A4” value is >100 % of control activity. Besides, the share remaining at 2 h, 1 μM in series [10] stood at 3.3%; in series [11], 96%.
On to H-GDYYF-OH [DS-5, NH2-GDYYF-OH], for which the share remaining at 0.5 h, 1 μM in [3] was 66.4%; in series [4], 95.9%; in series [10] it was 1.4%; in series [11] it was above 100%; in series [12], 62.5%. The “CYP inhibition (% of control activity) CYP1A2” value in series [5] is 83.2 % of control activity. Moreover, the “CYP inhibition (% of control activity) CYP2C19” value in series [6] is given as 80.9 % of control activity. Moreover, in series [7], the “CYP inhibition (% of control activity) CYP2C9” value is 97.3 % of control activity. For the same molecule, in series [8], the “CYP inhibition (% of control activity) CYP2D6” value is given as 85.5 % of control activity. For the same molecule, the “CYP inhibition (% of control activity) CYP3A4” value in [9] is recorded as 90.9 % of control activity. In series [2], this molecule had a solubility (kinetic) at 24 h of 328 µg/mL. Also, the share remaining at 2 h, 1 μM in series [10] is below 1%; in [11], 94.1%.
